The values below come from article PMC12364115, “High-throughput virtual screening, identification and in vitro biological evaluation of novel inhibitors of PLK1 and NRP1” (Journal of Enzyme Inhibition and Medicinal Chemistry, 2025).

In experiment [1] the target is T1, PLK1 (Homo sapiens, UniProt P53350).
T1 construct: purchased Abcam (Cambridge, MA, USA)
Kind of experiment: PLK1 inhibition assay. The experiment is classed as biochemical. On the procedure:
The method was as previously described. Briefly, the enzyme reaction mixture containing different doses of compounds was incubated for 90 min at room temperature. Then the mixture was transferred to a Neutravidin-coated 384-well plate and incubated for 60 min at room temperature. Then the wells were incubated with 50 μL of the antibody mixture for 1 h. The bound europium was liberated using 50 μL of Enhancement Solution.

Experiment [2] deals with T2, NRP1 (Homo sapiens, UniProt O14786).
T2 construct: expressed in transfected cells; host or cells: HUVEC
T2 sequence (O14786 22-923): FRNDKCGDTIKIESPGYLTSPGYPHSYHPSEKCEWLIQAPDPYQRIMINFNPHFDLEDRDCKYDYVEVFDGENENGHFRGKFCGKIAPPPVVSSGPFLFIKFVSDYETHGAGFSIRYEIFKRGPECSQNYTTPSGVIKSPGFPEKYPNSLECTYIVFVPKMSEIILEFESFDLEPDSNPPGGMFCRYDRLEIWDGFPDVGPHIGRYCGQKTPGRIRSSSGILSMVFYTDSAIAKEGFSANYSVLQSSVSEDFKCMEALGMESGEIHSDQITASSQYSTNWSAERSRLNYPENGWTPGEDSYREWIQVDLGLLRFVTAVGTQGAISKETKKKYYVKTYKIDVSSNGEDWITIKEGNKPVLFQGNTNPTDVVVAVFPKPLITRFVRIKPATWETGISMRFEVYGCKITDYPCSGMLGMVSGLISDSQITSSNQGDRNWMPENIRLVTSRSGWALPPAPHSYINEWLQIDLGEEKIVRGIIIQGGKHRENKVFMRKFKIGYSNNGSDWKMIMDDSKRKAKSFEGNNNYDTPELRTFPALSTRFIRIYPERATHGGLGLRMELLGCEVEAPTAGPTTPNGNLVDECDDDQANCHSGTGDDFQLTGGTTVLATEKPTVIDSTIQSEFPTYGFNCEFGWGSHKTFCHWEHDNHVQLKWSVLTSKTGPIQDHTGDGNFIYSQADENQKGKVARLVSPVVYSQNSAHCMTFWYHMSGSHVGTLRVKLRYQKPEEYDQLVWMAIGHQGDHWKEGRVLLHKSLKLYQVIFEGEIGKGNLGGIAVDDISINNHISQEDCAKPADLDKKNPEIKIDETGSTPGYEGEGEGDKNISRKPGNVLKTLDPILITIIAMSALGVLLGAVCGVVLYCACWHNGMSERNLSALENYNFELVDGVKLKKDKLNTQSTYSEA
Kind of experiment: NRP1 inhibition assay (125I-VEGF-A165 binding, HUVEC cells transfected with NRP1). On the procedure: The method was as previously described. Briefly, HUVEC cells transfected with NRP1 were added to a 96-well plate and after growing to confluence, and the compounds were added to each well at different concentrations. Then, the ^125I-VEGF-A165 (0.1 nM) was added to measure non-specific binding. Data curves were plotted and half maximal inhibitory concentrations (IC50) were derived for the selected compounds using Prism 6.0 software.

Experiment [3] relates to BEAS-2B cells. Briefly: MTT assay BEAS-2B. The settings on record: normal lung cells, 72 h treatment, n = 3. The experiment is classed as cell-based, human. The procedure: (§1) The lung cancer cells NCI-H460 (large cell lung carcinoma), A549 (adenocarcinoma), A427 (adenocarcinoma) and normal lung cells BEAS-2B (human normal lung epithelial cells) were purchased from The American Type Culture Collection (ATCC) (Manassas, VA, USA). The cells were cultured with Roswell Park Memorial Institute (RPMI) ‐1640 medium. The temperature of the cell culture was maintained at 37 °C. Hit compounds were obtained commercially from WuXi AppTec (PLN-1, Lot NO: P112561-P1; PLN-2, Lot NO: P112561-P2; PLN-3, Lot NO: P112561-P3; PLN-4, Lot NO: P112561-P4; PLN-5, Lot NO: P112561-P5) (Table S1). The purity of PLN 1-5 was more than 98% as determined by HPLC (Supplementary material). Human PLK1 and NRP1 proteins were purchased from Abcam (Cambridge, MA, USA).
(§2) Cells were seeded in 96-well plates (5 × 10^4 cells/well) and incubated overnight. Cells were incubated with different concentrations of PLN-5 at 37 °C for 72 h. After removal of the medium, MTT stock solution (5 mg/ml) was added and the incubation continued for 4 h. After centrifugation, the insoluble crystals were dissolved in dimethyl sulfoxide and gently shaken for 15 min. Finally, absorbance was measured at 570 nm using a microplate reader. The IC50 were calculated using Prism 6.0 software.

Experiment [4] has as its system A427 cells. Kind of experiment: MTT assay A427. The settings on record: Homo sapiens, A-427, 72 h treatment, mean ± SD, n = 3. Type of experiment: cell-based. On the procedure:
as §1, §2

For experiment [5], the target named is T3, NRP2 (Homo sapiens, UniProt O60462).
T3 construct: ICE Bioscience Inc (Beijing, China) (performed the assay)
T3 sequence (O60462 21-931): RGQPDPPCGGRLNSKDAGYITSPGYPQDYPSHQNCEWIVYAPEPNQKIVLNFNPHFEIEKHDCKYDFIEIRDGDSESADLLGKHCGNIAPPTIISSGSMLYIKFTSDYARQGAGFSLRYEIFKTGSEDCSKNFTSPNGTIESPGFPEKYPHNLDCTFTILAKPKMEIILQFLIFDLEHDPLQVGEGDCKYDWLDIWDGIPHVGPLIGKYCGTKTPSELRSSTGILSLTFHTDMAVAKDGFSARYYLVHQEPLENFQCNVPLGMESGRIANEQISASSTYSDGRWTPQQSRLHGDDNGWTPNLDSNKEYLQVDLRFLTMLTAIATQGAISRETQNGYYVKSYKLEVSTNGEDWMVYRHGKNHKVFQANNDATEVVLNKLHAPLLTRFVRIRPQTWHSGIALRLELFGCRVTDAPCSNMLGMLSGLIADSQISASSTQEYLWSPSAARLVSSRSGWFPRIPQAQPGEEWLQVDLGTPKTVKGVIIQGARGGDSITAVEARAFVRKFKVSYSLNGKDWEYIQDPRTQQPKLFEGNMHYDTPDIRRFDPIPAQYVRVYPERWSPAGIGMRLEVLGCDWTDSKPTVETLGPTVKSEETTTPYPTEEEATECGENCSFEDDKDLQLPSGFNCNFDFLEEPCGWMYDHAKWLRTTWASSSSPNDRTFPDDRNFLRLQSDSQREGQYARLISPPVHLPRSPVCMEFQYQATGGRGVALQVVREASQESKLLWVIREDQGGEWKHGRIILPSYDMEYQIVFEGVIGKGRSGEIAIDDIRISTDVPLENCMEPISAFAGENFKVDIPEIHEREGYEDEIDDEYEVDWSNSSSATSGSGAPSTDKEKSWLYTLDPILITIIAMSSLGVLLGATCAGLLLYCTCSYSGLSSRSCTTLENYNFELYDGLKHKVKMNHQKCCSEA
Kind of experiment: In vitro selectivity assay NRP2. The settings on record: n = 3. Type of experiment: biochemical. The procedure: (§3) To assess the selectivity of PLN-5, we systematically determined its inhibitory activity against PLK2, PLK3, PLK4 (homologues of PLK1) and […]. This assay was performed by ICE Bioscience Inc (Beijing, China).

Experiment [6] has as its target T4, PLK2 (Homo sapiens, UniProt Q9NYY3).
T4 construct: ICE Bioscience Inc (Beijing, China) (performed the assay)
Kind of experiment: In vitro selectivity assay PLK2. Type of experiment: biochemical. On the procedure:
as §3

Experiment [7] addresses T5, PLK3 (Homo sapiens, UniProt Q9H4B4).
T5 construct: ICE Bioscience Inc (Beijing, China) (performed the assay)
Kind of experiment: In vitro selectivity assay PLK3. Particulars: n = 3. Type of experiment: biochemical. On the procedure: as §3

Experiment [8] deals with NCI-H460 cells. Kind of experiment: MTT assay NCI-H460. The experiment is classed as cell-based, human. The procedure:
as §1, §2

The test system of experiment [9] is A549 cells. Kind of experiment: MTT assay A549. The settings on record: Homo sapiens, 72 h treatment, mean ± SD, n = 3. Type of experiment: cell-based. The procedure: as §1, §2
Experiment [10] has as its target T6, PLK4 (Homo sapiens, UniProt O00444).
T6 construct: ICE Bioscience Inc (Beijing, China) (performed the assay)
T6 sequence (O00444 1-970): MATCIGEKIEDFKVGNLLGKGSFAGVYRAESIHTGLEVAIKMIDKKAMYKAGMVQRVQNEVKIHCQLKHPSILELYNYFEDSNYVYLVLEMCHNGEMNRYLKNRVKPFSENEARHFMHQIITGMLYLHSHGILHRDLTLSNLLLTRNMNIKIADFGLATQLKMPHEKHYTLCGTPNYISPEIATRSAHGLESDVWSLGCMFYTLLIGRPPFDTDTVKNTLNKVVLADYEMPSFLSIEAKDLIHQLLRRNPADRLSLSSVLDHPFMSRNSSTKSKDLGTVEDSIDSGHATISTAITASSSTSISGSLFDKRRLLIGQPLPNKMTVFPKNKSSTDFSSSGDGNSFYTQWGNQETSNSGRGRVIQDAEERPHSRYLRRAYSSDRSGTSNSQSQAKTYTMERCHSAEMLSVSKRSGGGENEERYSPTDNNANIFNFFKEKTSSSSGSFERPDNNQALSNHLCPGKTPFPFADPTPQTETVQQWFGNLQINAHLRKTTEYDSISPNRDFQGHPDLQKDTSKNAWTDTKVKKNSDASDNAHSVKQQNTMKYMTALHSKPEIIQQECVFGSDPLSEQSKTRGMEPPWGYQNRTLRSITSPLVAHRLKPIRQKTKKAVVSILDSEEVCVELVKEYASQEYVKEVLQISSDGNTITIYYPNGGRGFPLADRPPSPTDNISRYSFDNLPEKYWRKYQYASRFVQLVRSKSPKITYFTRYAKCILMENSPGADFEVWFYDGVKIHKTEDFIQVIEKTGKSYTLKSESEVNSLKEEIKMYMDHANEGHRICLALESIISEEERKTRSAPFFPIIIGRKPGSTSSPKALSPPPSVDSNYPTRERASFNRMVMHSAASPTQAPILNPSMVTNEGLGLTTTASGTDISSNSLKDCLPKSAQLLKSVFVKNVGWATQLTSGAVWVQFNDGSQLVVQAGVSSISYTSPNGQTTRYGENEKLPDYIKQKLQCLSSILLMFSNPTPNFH
Briefly: In vitro selectivity assay PLK4. The experiment is classed as biochemical. On the procedure: as §3

Structures are written as SMILES. A value given as a limit tells only on which side of the number the result lay.

T1 sequence (P53350 whole entry): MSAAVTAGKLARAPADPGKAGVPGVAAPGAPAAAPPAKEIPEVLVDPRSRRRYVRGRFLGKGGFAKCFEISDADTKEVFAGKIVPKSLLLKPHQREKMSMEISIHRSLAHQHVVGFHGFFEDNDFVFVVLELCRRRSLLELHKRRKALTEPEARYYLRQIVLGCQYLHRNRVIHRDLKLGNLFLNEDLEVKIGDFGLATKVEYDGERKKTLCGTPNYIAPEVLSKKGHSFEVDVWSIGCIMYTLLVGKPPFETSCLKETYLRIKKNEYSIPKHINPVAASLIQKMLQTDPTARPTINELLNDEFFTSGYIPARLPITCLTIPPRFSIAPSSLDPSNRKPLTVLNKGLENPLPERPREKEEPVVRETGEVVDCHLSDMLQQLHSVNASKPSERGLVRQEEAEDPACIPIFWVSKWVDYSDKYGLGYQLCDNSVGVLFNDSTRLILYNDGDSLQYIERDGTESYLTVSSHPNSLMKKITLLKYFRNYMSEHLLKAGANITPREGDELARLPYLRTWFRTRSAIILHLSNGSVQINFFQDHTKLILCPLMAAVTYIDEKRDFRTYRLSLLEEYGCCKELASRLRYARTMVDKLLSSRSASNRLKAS
T5 sequence (Q9H4B4 whole entry, species assumed): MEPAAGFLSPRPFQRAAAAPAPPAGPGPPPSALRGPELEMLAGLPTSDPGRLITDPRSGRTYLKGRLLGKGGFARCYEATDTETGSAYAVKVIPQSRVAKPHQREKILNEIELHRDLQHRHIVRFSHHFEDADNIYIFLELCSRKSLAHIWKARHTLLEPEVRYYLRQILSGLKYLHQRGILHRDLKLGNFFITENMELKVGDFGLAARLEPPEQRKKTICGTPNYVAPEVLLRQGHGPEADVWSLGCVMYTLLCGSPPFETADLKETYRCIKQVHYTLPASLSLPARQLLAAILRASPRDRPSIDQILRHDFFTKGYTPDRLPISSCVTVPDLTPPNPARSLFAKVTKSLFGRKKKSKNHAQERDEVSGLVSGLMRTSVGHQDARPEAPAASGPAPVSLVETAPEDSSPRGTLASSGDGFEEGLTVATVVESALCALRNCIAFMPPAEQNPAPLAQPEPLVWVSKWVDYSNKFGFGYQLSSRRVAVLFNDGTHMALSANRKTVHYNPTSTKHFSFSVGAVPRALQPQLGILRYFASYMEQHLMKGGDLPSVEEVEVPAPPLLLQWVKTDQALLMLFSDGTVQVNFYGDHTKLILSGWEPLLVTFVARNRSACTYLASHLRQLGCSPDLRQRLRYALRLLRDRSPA
T4 sequence (Q9NYY3 whole entry, species assumed): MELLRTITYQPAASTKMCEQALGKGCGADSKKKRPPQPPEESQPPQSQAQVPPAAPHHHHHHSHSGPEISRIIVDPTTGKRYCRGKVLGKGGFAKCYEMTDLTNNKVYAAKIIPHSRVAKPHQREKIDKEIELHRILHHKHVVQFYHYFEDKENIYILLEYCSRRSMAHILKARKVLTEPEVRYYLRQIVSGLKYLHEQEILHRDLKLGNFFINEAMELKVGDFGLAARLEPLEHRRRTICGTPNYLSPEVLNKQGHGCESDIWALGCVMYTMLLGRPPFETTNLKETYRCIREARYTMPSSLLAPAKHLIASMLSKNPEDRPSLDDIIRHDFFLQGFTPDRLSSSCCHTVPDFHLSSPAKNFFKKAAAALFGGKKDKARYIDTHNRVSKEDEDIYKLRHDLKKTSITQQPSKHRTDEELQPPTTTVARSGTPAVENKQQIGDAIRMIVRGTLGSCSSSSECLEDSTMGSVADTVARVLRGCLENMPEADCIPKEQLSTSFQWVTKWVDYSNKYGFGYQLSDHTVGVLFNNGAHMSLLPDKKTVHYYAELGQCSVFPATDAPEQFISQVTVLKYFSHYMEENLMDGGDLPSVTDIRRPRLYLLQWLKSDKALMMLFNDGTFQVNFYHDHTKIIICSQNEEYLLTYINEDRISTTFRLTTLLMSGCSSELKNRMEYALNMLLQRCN

For the compound `NC(N)=NCCC[C@H](NC(=O)c1sccc1NS(=O)(=O)c1cccc2nsnc12)C(=O)O` [EG00229, reference compound], the “PLK1 (IC50, nM)” value in experiment [1] (mean ± SD, n = 3) was “no inhibition”. The IC50 in experiment [2] (mean ± SD, n = 3) came out at 640 ± 20.8 nM.
Regarding `CN1CCN(c2ccc(OC(F)(F)F)c(Nc3ncc4c(n3)-c3c(c(C(N)=O)nn3CCO)CC4)c2)CC1` [Onvansertib, onvansertib, reference compound], in [2] (mean ± SD, n = 3), the “NRP1 (IC50, nM)” value is “no inhibition”.
In the case of `Cc1ncc(CCCN(C)CC(=O)N[C@@H](CCCN=C(N)N)C(=O)O)cc1Nc1ncc2c(n1)-c1ccc(C#N)cc1NC(=O)C2` [PLN-1], the IC50 in [1] (mean ± SD, n = 3) came to 8.12 ± 0.34 nM; in [2] (mean ± SD, n = 3) it was 12.7 ± 0.81 nM.
In the case of `NC(N)=NCCC[C@H](NC(=O)CCCCCc1cncc(Nc2ncc3c(n2)-c2ccc(Cl)cc2NC(=O)C3)c1)C(=O)O` [PLN-2], the IC50 in [1] (mean ± SD, n = 3) is 16.5 ± 2.86 nM; in experiment [2] (mean ± SD, n = 3) it was 24.3 ± 1.29 nM.
On the same counts, the results for `COc1ncc(Nc2ncc3c(n2)-c2ccc(Cl)cc2NC(=O)C3)cc1CCCCCC(=O)N[C@@H](CCCN=C(N)N)C(=O)O` [PLN-3] are 11.4 ± 0.74 nM and 30.5 ± 2.55 nM.
For `CCc1ccc2c(c1)NC(=O)Cc1cnc(Nc3cc(CCCN(C)CC(=O)N[C@@H](CCCN=C(N)N)C(=O)O)cnc3C)nc1-2` [PLN-4], in that order: 4.51 ± 0.26 nM and 7.83 ± 0.42 nM.
For the compound `Cc1ncc(CCCN(C)CC(=O)N[C@@H](CCCN=C(N)N)C(=O)O)cc1Nc1ncc2c(n1)-c1ccc(Cl)cc1NC(=S)C2` [PLN-5], the IC50 in experiment [3] (Homo sapiens, BEAS-2B) is more than 10 µM; in experiment [4], 0.33 ± 0.02 µM; in experiment [5] it was more than 10 µM; in experiment [6], more than 10000 nM; in experiment [7] it was more than 10 µM; in experiment [1] (mean ± SD, n = 3) it was 2.07 ± 0.13 nM. The IC50 was 0.27 ± 0.02 µM in experiment [8] (Homo sapiens, NCI-H460, 72 h treatment, MTT, mean ± SD, n = 3); 0.41 ± 0.03 µM in [9]; more than 10000 nM in [10]; 5.15 ± 0.24 nM in experiment [2] (mean ± SD, n = 3). Moreover, in experiment [3], the “IC50 (μM) BEAS-2B” value is listed as “no significant inhibitory effect”. For the same compound, the “PLK1 potency relative to onvansertib” value in [1] (ratio of IC50 values vs positive control onvansertib) is “approximately 9 fold”. Also, in experiment [8] (2 μM compound), the “cell survival rate of NCI-H460 cells” value is “lowest survival rate”. For the same compound, the “inhibition rate against NCI-H460 cells” value in experiment [8] (MTT assay) was “more than 90%”. Besides, the “NRP1 potency relative to EG00229” value in experiment [2] (ratio of IC50 values vs positive control EG00229) is recorded as approximately 124 fold.
